# Reference: patent US10702518B2, “TAF1 inhibitors for the therapy of cancer” (CeMM—Forschungszentrum für Molekulare Medizin GmbH, priority 2016, dated 2020)
# Key:
# TAF1(BD2) [1] = molecular target: T1, TAF1(BD2) (Homo sapiens, UniProt P21675); assay: BROMOscan primary screen, binding to TAF1(BD2); conditions: for inhibition at 1 µM: read-out: TAF1_BD2 (% inhibition at 1 μM); for TAF1_BD2 (% inhibition at 1 μM): 1 μM compound, DMSO = 0%, 30 μM BI2536 = 100% inhibition
# T1 construct: the second bromodomain of TAF1 (TAF1 (2)); purchased DiscoverX Corporation (contract assay); host or cells: T7 phage in E. coli host derived from BL21
# T1 sequence (P21675 1519-1628 limits assumed): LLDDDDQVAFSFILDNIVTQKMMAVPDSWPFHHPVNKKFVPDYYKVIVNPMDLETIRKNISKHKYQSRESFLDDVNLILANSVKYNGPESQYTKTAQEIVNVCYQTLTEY
# Description: The binding of these compounds to TAF1 was tested by DiscoverX Corporation (Fremont, Calif., USA) in a primary screen using the BROMOscan assay, which is a ligand binding site-directed competition assay that allows to quantitatively measure interactions between test compounds and bromodomains (see Fabian et al., 2005 for an explanation of the principle of this assay), according to the following protocol:
# (§1) Bromodomain assays: T7 phage strains displaying bromodomains were grown in parallel in 24-well blocks in an E. coli host derived from the BL21 strain. E. coli were grown to log-phase and infected with T7 phage from a frozen stock (multiplicity of infection=0.4) and incubated with shaking at 32° C. until lysis (90-150 minutes). The lysates were centrifuged (5,000×g) and filtered (0.2 μm) to remove cell debris. Streptavidin-coated magnetic beads were treated with biotinylated small molecule or acetylated peptide ligands for 30 minutes at room temperature to generate affinity resins for bromodomain assays. The liganded beads were blocked with excess biotin and washed with blocking buffer (SeaBlock (Pierce), 1% BSA, 0.05% Tween 20, 1 mM DTT) to remove unbound ligand and to reduce non-specific phage binding. […] Test compounds were prepared as 1000× stocks in 100% DMSO and subsequently diluted 1:25 in monoethylene glycol (MEG). The compounds were then diluted directly into the assays such that the final concentrations of DMSO and MEG were 0.1% and 2.4%, respectively. All reactions were performed in polypropylene 384-well plates in a final volume of 0.02 ml. […] The bromodomain concentration in the eluates was measured by qPCR.
# REDS3 cells = assay: RFP reporter expression in REDS3 cells (live cell imaging); type: cell-based, human; conditions: for RFP expression in REDS3 cells: single agent; for confirmed screening hit (RFP induction in REDS3 screen): library screen of 89,355 small molecules
# Description: Cells were seeded on clear flat bottom 96-well or 384-well plates (Corning) and treated with the indicated compounds for the specified conditions. Live cell imaging pictures were taken with the Operetta High Content Screening System (PerkinElmer), 20× objective and non-confocal mode.
# Only RFP-positive nuclei were detected and counted.
# The increase of RFP fluorescence, detected with the Operetta High Content Screening System (PerkinElmer), 20× objective and non-confocal mode, was used as read-out.
# Briefly, the screening was divided in three parts called respectively 1) primary screening, 2) follow up and 3) validation. During the primary screening REDS3 cells were treated with 10 μM of every compound, and live cell imaging pictures were taken in order to assess their ability to induce RFP expression 24 hours later.
# THP1 cells [2] = assay: Cell cycle assay in THP1 cells; conditions: 48 hours
# Description: (e) Quantification of cells in S-phase by staining the nuclei with PI and analyzing DNA content by FACS. […] Three different biological replicates were performed and 30,000 cells were analysed each time (mean±STD).
# For cell cycle analysis, cells were fixed with 70% ethanol for 24 hours, washed with PBS/0.1%-Tween and incubated with RNase for 20 minutes. Nuclei were stained with 5 μg/ml PI (propidium iodide, Sigma) for 10 minutes prior to FACS analysis (BD FACSCalibur Flow Cytometer).
# [3] = system: c-MYC expression in WT-KBM7; assay: c-MYC expression by RT-PCR in WT-KBM7; type: cell-based, human; conditions: 1, 10 and 20 μM, 24 hours
# Description: (c) Percentage of c-MYC expression in WT-KBM7 treated with the selected compounds, assessed by RT-PCR. 1, 10 and 20 μM of each compound were used to treat cells for 24 hours; DMSO was used as negative control and (S)-JQ1 as positive control. Three biological replicates were performed (mean±STD).
# RNA extraction was performed with TRIzol Reagent (Life Technologies) according to the manufacturer's protocol and Reverse Transcription (RT) was performed using the High Capacity cDNA Reverse Transcription Kit (Applied Biosystems) following the standard protocol.
# QPCR was performed using the Power SYBR Green Master mix (Invitrogen) as described in the manufacturer's protocol.
# Real-time amplification results were normalized to the endogenous housekeeping genes Actin or GAPDH. The relative quantities were calculated using the comparative CT (Cycle Threshold) Method (ΔΔCT Method).
# THP1 cells [4] = assay: AnnexinV apoptosis assay in THP1 cells; conditions: 72 hours
# Description: (f) Quantification of AnnexinV positive cells from immunofluorescence images. […] At least 3 biological replicates were performed and more than 1,500 cells were quantified for each point (mean±STD).
# Apoptotic cells were detected using the Annexin V-FITC Apoptosis detection kit (Abcam) according to the manufacturer's instruction. Apoptosis quantification was performed with the Harmony software (PerkinElmer) for nuclei and cytoplasm detection and analysis, adapted for the nucleus diameter range and cell shape of the specific cell line used.
# KBM7 cells = assay: CellTiterGlo viability of control and TAF1 downregulated KBM7 cells; conditions: shRNA TAF1 vs control, 96 hours
# TAF1(BD2) [5] = molecular target: T1, TAF1(BD2); assay: BROMOscan binding constant determination for TAF1(BD2); conditions: 11-point 3-fold dilution series, read-out: TAF1_BD2 (IC50 μM)
# Description: as §1, with “100% DMSO. Kds were determined using an 11-point 3-fold compound dilution series with one” for “100%”, “control point. […]” for “and subsequently diluted 1:25 in monoethylene glycol (MEG).”, “concentration” for “concentrations”, “was 0.09%.” for “and MEG were 0.1% and 2.4%, respectively.”, “reactions” for “reactions were”, “plates. Each was” for “plates in”
# Compound handling: An 11-point 3-fold serial dilution of each test compound was prepared in 100% DMSO at 1000× final test concentration. […] The compounds were then diluted directly into the assays such that the final concentration of DMSO was 0.09%. Most Kds were determined using a compound top concentration=10,000 nM. If the initial Kd determined was <0.169 nM (the lowest concentration tested), the measurement was repeated with a serial dilution starting at a lower top concentration.
# Binding constants (Kds) were calculated with a standard dose-response curve using the Hill equation: […]
# The Hill Slope was set to −1. Curves were fitted using a non-linear least square fit with the Levenberg-Marquardt algorithm.
# The results thus obtained are reported in the following table as IC50 values [μM] for TAF1(BD2).
# TAF1 (2) = molecular target: T2, TAF1 (2) (Homo sapiens, UniProt P21675); assay: BromoScan / BromoELECT / BromoKdELECT, TAF1 (2); type: binding; conditions: 10 μM; for binding to TAF1 (2): BromoScan/BromoELECT
# T2 construct: the second bromodomain of TAF1 (TAF1 (2)); purchased DiscoverX Corporation (contract assay); host or cells: T7 phage in E. coli host derived from BL21
# T2 sequence (P21675 1519-1628 limits assumed): T1 sequence (P21675 1519-1628 limits assumed)
# Description: (§2) Bubbles indicate the percentage of inhibition of the binding of the analyzed bromodomains to an acetylated substrate. […] (g) BromoKdELECT assay for CeMMEC1 against TAF1 (2). […] (i) Docking of CeMMEC1 to the second bromodomain of TAF1. 3D model (top panel) and 2D ligand interaction diagram (bottom panel). Red dots in the 3D model indicate water molecules.
# (§3) (c) not used (d) KinomeScan profile for CeMMEC1 (10 μM). Bubbles indicate the percentage of inhibition of the binding of the analyzed kinase to an immobilized ligand.
# CREBBP = CREBBP (Homo sapiens, UniProt Q92793); assay: BromoScan / BromoELECT / BromoKdELECT, CREBBP; type: binding; conditions: BromoScan/BromoELECT, 10 μM
# Description: as §2, §3
# THP1 cells [6] = assay: Cell viability of THP1 cells, combination with (S)-JQ1; type: cell-based, human
# H23 cells = assay: Cell viability of H23 cells, combination with (S)-JQ1; type: cell-based
# CREBBP, sequence (Q92793 1085-1192 limits assumed): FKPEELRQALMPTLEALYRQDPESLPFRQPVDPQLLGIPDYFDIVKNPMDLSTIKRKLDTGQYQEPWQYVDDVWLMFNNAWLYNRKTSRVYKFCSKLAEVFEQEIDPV
compound,measurement,setting,value
Cn1ccc(C(=O)Nc2ccc(OC(F)(F)F)cc2)cc1=O [Compound 4-13],inhibition at 1 µM,TAF1(BD2) [1],3%
phytohemagglutinin [PHA],RFP expression in REDS3 cells,REDS3 cells,No increase of RFP-positive nuclei was observed
CCC(=O)N1CCOc2c(cc(-c3ccc(OC)c(OC)c3)cc2OC[C@H]2CCCN(C)C2)C1 [I-CBP112],RFP expression in REDS3 cells,REDS3 cells,No RFP expression was detected
CC[C@@H]1C(=O)N(C)c2cnc(Nc3ccc(C(=O)NC4CCN(C)CC4)cc3OC)nc2N1C1CCCC1 [BI-2536],confirmed screening hit (RFP induction in REDS3 screen),REDS3 cells; 24 hours,part of this group
Cc1cnc(Nc2ccc(OCCN3CCCC3)cc2)nc1Nc1cccc(S(=O)(=O)NC(C)(C)C)c1 [TG-101348],confirmed screening hit (RFP induction in REDS3 screen),REDS3 cells; 24 hours,part of this group
Cc1nnc2ccc(NCCC3=CCCCC3)nn12 [CeMMEC2],number of cells in S-phase,THP1 cells [2],clear and dose-dependent decrease of the number of cells in S-phase
same,c-MYC expression,[3],capable of reducing the expression of this oncogene in a dose-dependent manner
same,apoptosis (AnnexinV staining),THP1 cells [4],induced apoptosis
same,cell viability with TAF1 downregulation,KBM7 cells,synergism
COc1ccccc1S(=O)(=O)Nc1ccc2c(c1)CN(C)C(=O)N2 [PFI1],confirmed screening hit (RFP induction in REDS3 screen),REDS3 cells; 24 hours,part of this group
Cn1c(=O)ccc2c(NC(=O)c3ccc4c(c3)CCCO4)cccc21 [Compound 4-25],TAF1_BD2 (% inhibition at 1 μM),TAF1(BD2) [1],4%
Cn1ccc2c(NC(=O)c3ccc(OC(F)(F)F)cc3)cccc2c1=O [Compound 4-17],inhibition at 1 µM,TAF1(BD2) [1],11%
COc1ccc(CCc2nc3cc(-c4c(C)noc4C)ccc3n2C[C@H](C)N2CCOCC2)cc1Cl [CBP30],increase of RFP-positive cells compared to DMSO treated cells,"REDS3 cells; 10 μM, 24 hours",1.5 fold
Cn1c(=O)cc(C(=O)Nc2ccc3c(c2)OCCO3)c2ccccc21 [Compound 4-1],IC50,TAF1(BD2) [5],0.25 µM
same,TAF1_BD2 (% inhibition at 1 μM),TAF1(BD2) [1],89%
Cn1ccc2c(NC(=O)c3ccc4c(c3)OCCO4)cccc2c1=O [Compound 30],RFP expression in REDS3 cells in combination with (S)-JQ1,REDS3 cells,further boosted RFP expression beyond the increase in single treatments
same,RFP expression in REDS3 cells,REDS3 cells,comparable induction of RFP expression in REDS3 cells
same,binding to TAF1 (2),TAF1 (2),retaining TAF1 activity
same,IC50,TAF1(BD2) [5],4 µM
same,binding to CREBBP,CREBBP,lost all affinity to CREBBP
Cn1c2c(ccc1=O)C(NC(=O)c1ccc3c(c1)OCCO3)CCC2 (stereo not shown) [Compound 4-29],inhibition at 1 µM,TAF1(BD2) [1],32%
Cc1sc2c(c1C)C(c1ccc(Cl)cc1)=N[C@@H](CC(=O)Nc1ccc(O)cc1)c1nnc(C)n1-2 [OXT015],confirmed screening hit (RFP induction in REDS3 screen),REDS3 cells; 24 hours,part of this group
COc1cc(NC(=O)c2cc(=O)n(C)c3ccccc23)cc(OC)c1 [Compound 4-4],inhibition at 1 µM,TAF1(BD2) [1],48%
COc1ccc(C(=O)Nc2cccc3c(=O)n(C)ccc23)cc1 [Compound 4-16],inhibition at 1 µM,TAF1(BD2) [1],34%
COc1cc(OC)cc(C(=O)NC2CCCc3c2ccc(=O)n3C)c1 (stereo not shown) [Compound 4-33],inhibition at 1 µM,TAF1(BD2) [1],11%
COc1ccc(NC(=O)c2cc(=O)n(C)c3ccccc23)cc1 [Compound 4-2],inhibition at 1 µM,TAF1(BD2) [1],9%
Cn1c(=O)cc(C(=O)Nc2ccc(OC(F)(F)F)cc2)c2ccccc21 [Compound 4-3],inhibition at 1 µM,TAF1(BD2) [1],20%
COc1cc2c(cc1-c1c(C)noc1C)ncc1[nH]c(=O)n([C@H](C)c3ccccn3)c12 [I-BET151],confirmed screening hit (RFP induction in REDS3 screen),REDS3 cells; 24 hours,part of this group
COc1cc(OC)c2c(=O)[nH]c(-c3cc(C)c(OCCO)c(C)c3)nc2c1 [RVX208],confirmed screening hit (RFP induction in REDS3 screen),REDS3 cells; 24 hours,part of this group
COc1ccc(C(=O)Nc2cccc3c2ccc(=O)n3C)cc1 [Compound 4-26],IC50,TAF1(BD2) [5],0.056 µM
same,TAF1_BD2 (% inhibition at 1 μM),TAF1(BD2) [1],82%
COc1ccc(C(=O)NC2CCCc3c2ccc(=O)n3C)cc1 (stereo not shown) [Compound 4-31],inhibition at 1 µM,TAF1(BD2) [1],34%
Cn1c2c(ccc1=O)C(NC(=O)c1ccc(OC(F)(F)F)cc1)CCC2 (stereo not shown) [Compound 4-32],inhibition at 1 µM,TAF1(BD2) [1],10%
"CCCCCCCCCCCCCC(=O)O[C@@H]1[C@@H](C)[C@@]2(O)[C@@H](C=C(CO)C[C@]3(O)C(=O)C(C)=C[C@@H]23)[C@@H]2C(C)(C)[C@]12OC(C)=O [PMA, phorbol myristate acetate]",RFP expression in REDS3 cells,REDS3 cells,No increase of RFP-positive nuclei was observed
COc1cc(NC(=O)c2ccn(C)c(=O)c2)cc(OC)c1 [Compound 4-14],inhibition at 1 µM,TAF1(BD2) [1],20%
"Cc1sc2c(c1C)C(c1ccc(Cl)cc1)=N[C@@H](CC(=O)OC(C)(C)C)c1nnc(C)n1-2 [(S)-JQ1, reference compound]",lowest concentration causing full activation of RFP signal,REDS3 cells; 24 hours,0.5 µM
same,confirmed screening hit (RFP induction in REDS3 screen),REDS3 cells; 24 hours,part of this group
same,RFP expression in REDS3 cells,REDS3 cells,clear and robust increase of RFP expression
same,number of cells in S-phase,THP1 cells [2],clear and dose-dependent decrease of the number of cells in S-phase
same,apoptosis (AnnexinV staining),THP1 cells [4],induced apoptosis
same,cell viability with TAF1 downregulation,KBM7 cells,Downregulation of TAF1 decreased cell viability when (S)-JQ1 was used at concentrations not able to affect control cells
Cn1c(=O)ccc2c(C(=O)Nc3ccc4c(c3)OCCO4)cccc21 [Compound 4-24],inhibition at 1 µM,TAF1(BD2) [1],58%
COc1cc(OC)cc(C(=O)Nc2cccc3c2ccc(=O)n3C)c1 [Compound 4-28],inhibition at 1 µM,TAF1(BD2) [1],50%
Cn1c(=O)cc(C(=O)Nc2ccc3c(c2)OCCO3)c2ccccc21 [Compound 29],RFP expression in REDS3 cells in combination with (S)-JQ1,REDS3 cells,further boosted RFP expression beyond the increase in single treatments
same,RFP expression in REDS3 cells,REDS3 cells,comparable induction of RFP expression in REDS3 cells
same,synergy with (S)-JQ1 (Bliss independence test),THP1 cells [6],the most effective
same,"selectivity among BRD4 (1), BRD9, CREBBP, EP300 and TAF1 (2)",TAF1 (2); BromoELECT,high selectivity for the TAF1 (2) bromodomain
same,binding to TAF1 (2),TAF1 (2),retaining TAF1 activity
same,IC50,TAF1(BD2) [5],3.1 µM
same,synergy with (S)-JQ1 (Bliss independence test),H23 cells,the most effective
same,binding to CREBBP,CREBBP,lost all affinity to CREBBP
Cn1ccc(C(=O)Nc2ccc3c(c2)OCCO3)cc1=O [Compound 4-10],inhibition at 1 µM,TAF1(BD2) [1],3%
